According to patent US20190010167A1, “INHIBITORS OF THE MENIN-MLL INTERACTION” (Vitae Pharmaceuticals, Inc., priority 2015, published 2019):

target: T1, wild-type menin / MLL-AF9 fusion protein (Homo sapiens, UniProt O00255); experiment: AlphaLISA menin/MLL binding assay, wild-type menin (Assay 1); conditions: biotinylated wild-type menin 5 nM, MLL-AF9-FLAG lysate
T1 construct: made in house; host or cells: E. coli (menin); HEK293 cleared lysate (MLL-AF9-FLAG)
T1 sequence (O00255 1-610): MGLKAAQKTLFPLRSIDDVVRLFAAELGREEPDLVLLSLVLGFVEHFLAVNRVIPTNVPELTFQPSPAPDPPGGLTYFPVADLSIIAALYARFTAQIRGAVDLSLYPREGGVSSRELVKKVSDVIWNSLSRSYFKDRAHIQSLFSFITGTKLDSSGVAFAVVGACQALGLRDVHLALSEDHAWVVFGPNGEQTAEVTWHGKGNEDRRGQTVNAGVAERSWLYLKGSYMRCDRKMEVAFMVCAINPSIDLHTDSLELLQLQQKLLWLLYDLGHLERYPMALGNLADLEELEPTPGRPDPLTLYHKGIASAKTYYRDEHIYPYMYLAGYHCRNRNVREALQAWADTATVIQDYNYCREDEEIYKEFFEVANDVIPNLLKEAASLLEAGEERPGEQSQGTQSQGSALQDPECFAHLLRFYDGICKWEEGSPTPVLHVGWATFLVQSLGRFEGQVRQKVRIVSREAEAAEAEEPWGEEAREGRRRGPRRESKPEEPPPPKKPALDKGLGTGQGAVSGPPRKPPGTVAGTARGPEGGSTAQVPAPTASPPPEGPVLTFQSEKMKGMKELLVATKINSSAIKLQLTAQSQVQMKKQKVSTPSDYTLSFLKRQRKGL
Description: Potencies of inhibitor compounds against menin/MLL binding were assessed by AlphaLISA assay using biotinylated (1) wild-type menin or (2) mutated menin (described in Nature (2012) Vol. 482, pp. 542-548) and MLL-AF9 fusion protein bearing a FLAG epitope at its C-terminus. Menin proteins were expressed in E. coli and covalently modified with biotin using EZ-Link™ Sulfo-NHS-Biotin (ThermoFisher Cat. No. 21217) according to manufacturer's protocol. MLL1-1,396 fused to AF91-92 and the C-terminal FLAG peptide was expressed in HEK293 cells and used as a lysate cleared at 21,000×g for 10 min.
Compounds (2 μL of solutions in DMSO) were dispensed in white 96-well half-area plates (Corning Cat. No. 3693) and incubated for 30 min at RT with 5 nM biotinylated menin and appropriate amount of MLL-AF9-FLAG lysate in 40 μL of 50 mM Tris-HCl buffer pH 7.4 containing 5% (v/v) DMSO, 50 mM NaCl, 0.01% (w/v) bovine serum albumin (BSA) and 1 mM DTT. To this incubation mixture, 40 μl of AlphaLISA anti-FLAG acceptor (PerkinElmer Cat. No. AL112C) and streptavidin donor (PerkinElmer Cat. No. 6760002) beads (10 μg/mL each) was added and incubation continued at RT for 60 min. Alpha (amplified luminescent proximity homogeneous assay) signal was measured on an Envision multi-label plate reader at the end of the incubation. All steps were conducted under dim fluorescent light.
These percent inhibition values were regressed against compound concentrations in the assay using four parameter logit non-linear curve fitting (XLFit, IDBS). The IC50 values were derived from the curve fitting as inflection points on the dose-response curves and are set out in Table 1 below.

SMILES	IC50 [nM]
O=C(C1CCCNC1)N1CC2(C1)CN(c1ncnc3sc(CC(F)(F)F)cc13)C2 (stereo not drawn) [Example 78, piperidin-3-yl(6-(6-(2,2,2-trifluoroethyl)thieno[2,3-d]pyrimidin-4-yl)-2,6-diazaspiro[3.3]heptan-2-yl)methanone]	100 to 1000
Cc1c(CN2CC3(CCN(c4ncnc5sc(CC(F)(F)F)cc45)C3)C2)ccc2[nH]c(C#N)cc12 [Example 112, 4-methyl-5-((6-(6-(2,2,2-trifluoroethyl)thieno[2,3-d]pyrimidin-4-yl)-2,6-diazaspiro[3.4]octan-2-yl)methyl)-1H-indole-2-carbonitrile]	100 to 1000
FC(F)(F)Cc1cc2c(N3CCC4(CC3)CN(CC3CCCC(F)(F)C3)C4)ncnc2s1 (stereo not drawn) [Example 11, 4-(2-((3,3-difluorocyclohexyl)methyl)-2,7-diazaspiro[3.5]nonan-7-yl)-6-(2,2,2-trifluoroethyl)thieno[2,3-d]pyrimidine]	100 to 1000
FC(F)(F)Cc1cc2c(N3CCC4(CC3)CN(CC3CCCCO3)C4)ncnc2s1 (stereo not drawn) [Example 6, 4-(2-((tetrahydro-2H-pyran-2-yl)methyl)-2,7-diazaspiro[3.5]nonan-7-yl)-6-(2,2,2-trifluoroethyl)thieno[2,3-d]pyrimidine]	≥ 1000
FC(F)(F)Cc1cc2c(N3CCC4(CCN(CC5CCOC5)C4)C3)ncnc2s1 (stereo not drawn) [Example 31, 4-(7-((Tetrahydrofuran-3-yl)methyl)-2,7-diazaspiro[4.4]nonan-2-yl)-6-(2,2,2-trifluoroethyl)thieno[2,3-d]pyrimidine]	100 to 1000
COC(=O)Nc1cccc(CN2CCC3(CCN(c4ncnc5sc(CC(F)(F)F)cc45)C3)C2)c1 (stereo not drawn) [Example 53, methyl (3-((7-(6-(2,2,2-trifluoroethyl)thieno[2,3-d]pyrimidin-4-yl)-2,7-diazaspiro[4.4]nonan-2-yl)methyl)phenyl)carbamate]	< 100
CC(C)N1CC2(CCN(c3ncnc4sc(CC(F)(F)F)cc34)CC2)C1 [Example 3, 4-(2-isopropyl-2,7-diazaspiro[3.5]nonan-7-yl)-6-(2,2,2-trifluoroethyl)thieno[2,3-d]pyrimidine]	≥ 1000
CC(C)CN1CC2(CCN(c3ncnc4sc(CC(F)(F)F)nc34)CC2)C1 [Example 81, 7-(2-isobutyl-2,7-diazaspiro[3.5]nonan-7-yl)-2-(2,2,2-trifluoroethyl) thiazolo[5,4-d]pyrimidine]	≥ 1000
CCC(C)CN1CCC2(C1)CN(c1ncnc3sc(CC(F)(F)F)cc13)C2 (stereo not drawn) [Example 94, 4-(6-(2-methylbutyl)-2,6-diazaspiro[3.4]octan-2-yl)-6-(2,2,2-trifluoroethyl)thieno[2,3-d]pyrimidine]	100 to 1000
Cc1c(CN2CCC3(CCN(c4ncnc5sc(CC(F)(F)F)nc45)C3)C2)ccc2[nH]c(C#N)cc12 (stereo not drawn) [Example 83, 4-methyl-5-((7-(2-(2,2,2-trifluoroethyl)thiazolo[5,4-d]pyrimidin-7-yl)-2,7-diazaspiro[4.4]nonan-2-yl)methyl)-1H-indole-2-carbonitrile]	< 100
FC(F)(F)Cc1nc2c(N3CCC4(CCN(Cc5ccccc5)C4)C3)ncnc2s1 (stereo not drawn) [Example 82, 7-(7-benzyl-2,7-diazaspiro[4.4]nonan-2-yl)-2-(2,2,2-trifluoroethyl)thiazolo[5,4-d]pyrimidine]	100 to 1000
O=C(C1CCCNC1)N1CCC2(CCN(c3ncnc4sc(CC(F)(F)F)cc34)C2)C1 (stereo not drawn) [Example 55, piperidin-3-yl(7-(6-(2,2,2-trifluoroethyl)thieno[2,3-d]pyrimidin-4-yl)-2,7-diazaspiro[4.4]nonan-2-yl)methanone]	100 to 1000
CC(=O)N[C@H]1CC[C@H](CN2CCC3(CCN(c4ncnc5sc(CC(F)(F)F)cc45)C3)C2)CC1 (stereo partly drawn) [Example 47, N-((1r,4r)-4-((7-(6-(2,2,2-trifluoroethyl)thieno[2,3-d]pyrimidin-4-yl)-2,7-diazaspiro[4.4]nonan-2-yl)methyl)cyclohexyl)acetamide]	100 to 1000
FC(F)(F)Cc1ccc2ncnc(N3CC4(CN(CC5CCOCC5)C4)C3)c2c1 [Example 91, 4-(6-((tetrahydro-2H-pyran-4-yl)methyl)-2,6-diazaspiro[3.3]heptan-2-yl)-6-(2,2,2-trifluoroethyl)quinazoline]	≥ 1000
CCC(C)CN1CCC2(CC1)CCN(c1ncnc3sc(CC(F)(F)F)cc13)C2 (stereo not drawn) [Example 114, 4-(8-(2-methylbutyl)-2,8-diazaspiro[4.5]decan-2-yl)-6-(2,2,2-trifluoroethyl)thieno[2,3-d]pyrimidine]	100 to 1000
FC(F)(F)Cc1cc2c(N3CCC4(CC3)CN(CC3CCOC3)C4)ncnc2s1 (stereo not drawn) [Example 5, 4-(2-((tetrahydrofuran-3-yl)methyl)-2,7-diazaspiro[3.5]nonan-7-yl)-6-(2,2,2-trifluoroethyl)thieno[2,3-d]pyrimidine]	100 to 1000
COC1CC(CN2CC3(CCN(c4ncnc5sc(CC(F)(F)F)cc45)CC3)C2)C1 (stereo not drawn) [Example 13]	≥ 1000

Further lines, results first:

IC50 [nM]	SMILES
100 to 1000	COC(=O)N[C@H]1CC[C@@H](CN2CCC3(CCN(c4ncnc5sc(CC(F)(F)F)cc45)C3)C2)CC1 (stereo partly drawn) [Example 51, Methyl ((1s,4s)-4-((7-(6-(2,2,2-trifluoroethyl)thieno[2,3-d]pyrimidin-4-yl)-2,7-diazaspiro[4.4]nonan-2-yl)methyl)cyclohexyl)carbamate]
100 to 1000	O=S1(=O)CCC(N2CCC3(CC2)CN(c2ncnc4sc(CC(F)(F)F)cc24)C3)CC1 [Example 104, 4-(2-(6-(2,2,2-trifluoroethyl)thieno[2,3-d]pyrimidin-4-yl)-2,7-diazaspiro[3.5]nonan-7-yl)tetrahydro-2H-thiopyran 1,1-dioxide]
≥ 1000	Cc1c(CN2CCC3(CC2)CCN(c2ncnc4sc(CC(F)(F)F)cc24)C3)ccc2[nH]c(C#N)cc12 [Example 117, 4-methyl-5-((2-(6-(2,2,2-trifluoroethyl)thieno[2,3-d]pyrimidin-4-yl)-2,8-diazaspiro[4.5]decan-8-yl)methyl)-1H-indole-2-carbonitrile]
100 to 1000	FC(F)(F)Cc1cc2c(N3CCC4(CCN(C[C@H]5CC[C@H](C(F)(F)F)CC5)C4)C3)ncnc2s1 (stereo partly drawn) [Example 37, 6-(2,2,2-Trifluoroethyl)-4-(7-(((1r,4r)-4-(trifluoromethyl)cyclohexyl)methyl)-2,7-diazaspiro[4.4]nonan-2-yl)thieno[2,3-d]pyrimidine]
≥ 1000	FC(F)(F)Cc1cc2c(N3CC4(CN(CC5CC(F)(F)C5)C4)C3)ncnc2s1 [Example 74, 4-(6-((3,3-difluorocyclobutyl)methyl)-2,6-diazaspiro[3.3]heptan-2-yl)-6-(2,2,2-trifluoroethyl)thieno[2,3-d]pyrimidine]
100 to 1000	CC(C)CN1CCC2(CC1)CCN(c1ncnc3sc(CC(F)(F)F)cc13)C2 [Example 113, 4-(8-isobutyl-2,8-diazaspiro[4.5]decan-2-yl)-6-(2,2,2-trifluoroethyl)thieno[2,3-d]pyrimidine]
≥ 1000	CC(C)(F)CN1CC2(CCN(c3ncnc4sc(CC(F)(F)F)cc34)CC2)C1 [Example 16, 4-(2-(2-fluoro-2-methylpropyl)-2,7-diazaspiro[3.5]nonan-7-yl)-6-(2,2,2-trifluoroethyl)thieno[2,3-d]pyrimidine]
100 to 1000	O=C(C1CCCCN1)N1CCC2(CCN(c3ncnc4sc(CC(F)(F)F)cc34)C2)C1 (stereo not drawn) [Example 56, piperidin-2-yl(7-(6-(2,2,2-trifluoroethyl)thieno[2,3-d]pyrimidin-4-yl)-2,7-diazaspiro[4.4]nonan-2-yl)methanone]
≥ 1000	FC(F)(F)Cc1cc2c(N3CC4(CCN(Cc5ccccc5)C4)C3)ncnc2s1 [Example 95, 4-(6-benzyl-2,6-diazaspiro[3.4]octan-2-yl)-6-(2,2,2-trifluoroethyl)thieno[2,3-d]pyrimidine]
100 to 1000	O=S(=O)(N[C@H]1CC[C@H](CN2CC3(C2)CN(c2ncnc4sc(CC(F)(F)F)cc24)C3)CC1)C1CC1 [Example 72, N-((1r,4r)-4-((6-(6-(2,2,2-trifluoroethyl)thieno[2,3-d]pyrimidin-4-yl)-2,6-diazaspiro[3.3]heptan-2-yl)methyl)cyclohexyl)cyclopropanesulfonamide]
